Experimental data taken from patent EP0891772A2, “Therapeutic agent for rheumatic disease comprising nonsteroidal anti-inflamatory drug and phenylpropionic acid derivative” (SANTEN PHARMACEUTICAL CO., LTD., priority 1997, dated 1999).

What was measured:
[1] = test system: type II collagen-induced arthritis; experiment: type II collagen-induced arthritis model; type: in vivo, DBA/1 strain mouse; conditions: for bone destruction score: 26th day after the secondary sensitization
Procedure: A solution (4 mg/ml) of bovine joint cartilage type II collagen in diluted hydrochloric acid was mixed with Freund' s complete adjuvant of the same volume to prepare an emulsion. As a primary sensitization, this emulsion was injected intra-dermally into tail root site of DBA/1 strain mouse at a dose of 100 µl (corresponding to 200 µg of the type II collagen per mouse). After 21 days from the primary sensitization, 100 µl of this emulsion was injected intra-dermally into a tail root site of the mouse again (secondary sensitization). […] 5% carboxymethyl cellulose and a nonsteroidal anti-inflammatory drug was suspended in 1% methyl cellulose. With regard to the confirmation of onset of arthritis, the stage where swelling at the site of joint accompanied by erythema was defined as the onset of arthritis. With regard to degree of the arthritis, scoring was conducted for each paw according to the evaluating criterion for arthritis grade as mentioned below and the total point for four paws was used as an arthritic score. • 0: no change • 1: weak swelling and weak erythema were observed • 2: weak swelling and erythema were observed • 3: strong swelling and erythema were observed • 4: strong swelling and erythema accompanied by bone erosion were observed Then, on the 26th day after the secondary sensitization, X-ray photographs of the joints of four paws were taken.

[2] = test system: adjuvant-induced arthritis; experiment: adjuvant-induced arthritis model; type: in vivo, rat
Procedure: A suspension (0.6 mg/100 µl) of Mycobacterium butyricum (adjuvant) in liquid paraffin was injected subcutaneously into a left hind paw of rat (male; nine weeks age; body weight being about 240 grams) to induce arthritis.
Incidentally, as a control, a suspension not containing a test compound was administered by the same manner as above.

[3] = test system: hepatic allotransplantation; conditions: rats; Surg. Today, 26, 419-426(1996); cited from earlier work
[4] = diclofenac sodium alone 3 mg/kg, oral once a day
[5] = present compound alone 100 mg/kg, oral once a day

Row | Compound | arthritic score [1, 4] | effect of delaying the onset of arthritis [1, 4] | bone destruction score ([1]; diclofenac sodium alone 3 mg/kg) | pathohistological test: bone destruction, edema, etc. ([2]; present compound alone) | edema of left hindpaw (paw volume) ([2]; present compound alone 100 mg/kg, oral once a day from the 14th day after adjuvant) | arthritic score [1, 5] | incidence of arthritis [1, 5] | bone destruction score ([1]; present compound alone 100 mg/kg) | incidence of arthritis ([1]; present compound alone 200 mg/kg, oral once a day, tendency = nearly as control, as at 100 mg/kg) | arthritic score ([1]; present compound alone 200 mg/kg, oral once a day, tendency = slight improvement as at 100 mg/kg) | bone destruction score ([1]; present compound alone 200 mg/kg) | immunosuppressive action to hepatic allotransplantation [3]
1 | O=C(O)Cc1ccccc1Nc1c(Cl)cccc1Cl [diclofenac sodium, reference compound] | improvement in the arthritic score was recognized | no effect of delaying the onset of arthritis was recognized | a suppressive effect was recognized but the instant effect was far weaker than in the case of the combination administration |  |  |  |  |  |  |  |  | 
2 | COc1ccc(/C=C/CCCCOc2cccc(OCCCCC(=O)O)c2CCC(=O)O)cc1 [the present compound, 3-[1-[6-(4-methoxyphenyl)hex-5E-enyl]oxy-3-(4-carboxylbutyl)oxybenzen-2-yl]propionic acid] |  |  |  | nearly no suppressive effect | nearly no suppressive effect on edema was recognized | improvement was recognized slightly | nearly the same proceeding as in the control group | no suppressive effect was recognized at all | Such a tendency was unchanged | Such a tendency was unchanged | the suppressive effect was hardly recognized | shows an immunosuppressive action
